Where a name gives a salt, the structure may show the parent alone. Read-outs that look alike come from different tables or passages of the source.

For this experiment, the system named is NQO1 specific enzyme activity in BEAS-2B cells. In words: BEAS-2B NQO1 MTT assay. As to conditions: BEAS-2B cells, 48 hours with compound, MTT readout, read-out: EC50 of NQO1 specific activity induction. In kind it is cell-based. From the text:
NAD(P)H:quinone oxidoreductase 1 (NQO1), also called DT diaphorase, is a homodimeric FAD-containing enzyme that catalyzes obligatory NAD(P)H-dependent two-electron reductions of quinones and protects cells against the toxic and neoplastic effects of free radicals and reactive oxygen species arising from one-electron reductions. The transcription of NQO1 is finely regulated by NRF2, and thus NQO1 activity is a good marker for NRF2 activation. On day one, frozen BEAS-2B cells (ATCC) are thawed in a water bath, counted, and re-suspended at a concentration of 250,000 cells/mL. Fifty microliters of cells are plated in 384 well black clear-bottomed plates. Plates are incubated at 37° C., 5% CO2 overnight. On day two, plates are centrifuged and 50 nL of compound or controls are added to the cells. Plates are then incubated at 37° C., 5% CO2 for 48 hours. On day four, medium is aspirated from the plate and crude cell lysates are made by adding 13 uL of 1× Cell Signaling Technologies lysis buffer with 1 Complete, Mini, EDTA-free Protease Inhibitor Tablet (Roche) for each 10 mL of lysis buffer. After lysis plates are incubated for 20 minutes at room temperature. Two microliters of lysate are removed for use in Cell Titer Glo assay (Promega) and MTT cocktail is prepared (Prochaska et. al. 1998) for measurement of NQO1 activity. Fifty microliters of MTT cocktail is added to each well, plate is centrifuged, and analyzed on an Envision plate reader (Perkin Elmer) using Absorbance 570 nm label for 30 minutes. Product formation is measured kinetically and the EC50 of NQO1 specific activity induction is calculated by plotting the change in absorbance (Delta OD/min) versus the log of compound concentration followed by 3-parameter fitting.
(In general: Formazan colour is commonly taken as a measure of viable cells.)

On to `CC[C@@H]1CN(Cc2cc(C(CCc3cn(CC)nn3)C(C)(C)C(=O)O)ccc2C)Cc2ccncc2O1` (stereo partly drawn) [Example 220, 5-(1-Ethyl-1H-1,2,3-triazol-4-yl)-3-(3-(((R)-2-ethyl-2,3-dihydropyrido[4,3-f][1,4]oxazepin-4(5H)-yl)methyl)-4-methylphenyl)-2,2-dimethylpentanoic Acid, 3.2 Trifluoroacetic Acid Salt], for which the EC50 (Homo sapiens, BEAS-2B, 48 h) fell in the range of 0.01 to 0.1 µM.
Still for that read-out and setting: then `Cc1ccc(C(CC(=O)O)c2ccc3c(nnn3C)c2C)cc1Cn1ccnc1CC1CCCC1` (stereo not shown) [Example 148, 3-(3-((2-(Cyclopentylmethyl)-1H-imidazol-1-yl)methyl)-4-methylphenyl)-3-(1,4-dimethyl-1H-benzo[d][1,2,3]triazol-5-yl)propanoic acid], with 0.1 to 1 µM; and `Cc1ccc(C(c2ccc3c(nnn3C)c2C)C(C)(C)C(=O)O)cc1CN1Cc2cnccc2OC(C)(C)C1` (stereo not shown) [Example 22, 3-(1,4-Dimethyl-1H-benzo[d][1,2,3]triazol-5-yl)-3-(3-((2,2-dimethyl-2,3-dihydropyrido[3,4-f][1,4]oxazepin-4(5H)-yl)methyl)-4-methylphenyl)-2,2-dimethylpropanoic Acid, Trifluoroacetic Acid], with 0.001 to 0.01 µM.
Still for that read-out and setting: under `CC[C@@H]1CN(Cc2cc([C@H](c3ccc4c(nnn4C)c3C)C(C)C(=O)O)ccc2C)Cc2cc(F)ccc2O1` (stereo partly drawn) [Example 42, (3R)-3-(1,4-Dimethyl-1H-benzo[d][1,2,3]triazol-5-yl)-3-(3-(((R)-2-ethyl-7-fluoro-2,3-dihydrobenzo[f][1,4]oxazepin-4(5H)-yl)methyl)-4-methylphenyl)-2-methylpropanoic Acid, Trifluoroacetic Acid Salt] stands 0.1 to 1 µM.
The same measure, in the same setting: then `Cc1ccc(C(CC(=O)O)c2ccc3c(nnn3C)c2C)cc1CN1Cc2ccccc2O[C@@H](C)C1` (stereo partly drawn) [Example 98, 3-(1,4-Dimethyl-1H-benzo[d][1,2,3]triazol-5-yl)-3-(4-methyl-3-(((S)-2-methyl-2,3-dihydrobenzo[f][1,4]oxazepin-4(5H)-yl)methyl)phenyl)propanoic Acid, Formic Acid Salt], with 0.1 to 1 µM; and `CCC1CCN(Cc2nccn2Cc2cc([C@@H](c3ccc4c(nnn4C)c3C)C(C)(C)C(=O)O)ccc2C)CC1` [Example 122, (S)-3-(1,4-Dimethyl-1H-benzo[d][1,2,3]triazol-5-yl)-3-(3-((2-((4-ethylpiperidin-1-yl)methyl)-1H-imidazol-1-yl)methyl)-4-methylphenyl)-2,2-dimethylpropanoate, Sodium salt], with 0.01 to 0.1 µM.
For the compound `CCc1nc(C2CCCCN2Cc2cc(C(CC(=O)O)c3ccc4c(nnn4C)c3C)ccc2C)no1` (stereo not shown) [Example 12, Ammonium 3-(1,4-dimethyl-1H-benzo[d][1,2,3]triazol-5-yl)-3-(3-((2-(5-ethyl-1,2,4-oxadiazol-3-yl)piperidin-1-yl)methyl)-4-methylphenyl)propanoate], the concentration for a half-maximal effect (EC50) (Homo sapiens, BEAS-2B, 48 h) lay within 0.1 to 1 µM.
For the compound `CC[C@@H]1CN(Cc2cc([C@H](CC(=O)O)c3ccc4c(nnn4C)c3C)ccc2C)Cc2cccc(F)c2O1` [Example 58, (S)-3-(1,4-Dimethyl-1H-benzo[d][1,2,3]triazol-5-yl)-3-(3-(((R)-2-ethyl-9-fluoro-2,3-dihydrobenzo[f][1,4]oxazepin-4(5H)-yl)methyl)-4-methylphenyl)propanoic acid, Sodium salt], for the setting “Homo sapiens, BEAS-2B, 48 h”, the EC50 fell in the range of 0.01 to 0.1 µM.
For `Cc1ccc(C(c2ccc3c(nnn3C)c2C)C(C)(C)C(=O)O)cc1Cn1ccnc1CN1CCCCCC1` (stereo not shown) [Example 141, 3-(3-((2-(Azepan-1-ylmethyl)-1H-imidazol-1-yl)methyl)-4-methylphenyl)-3-(1,4-dimethyl-1H-benzo[d][1,2,3]triazol-5-yl)-2,2-dimethylpropanoic acid, trifluoroacetic acid salt], for the setting “trifluoroacetic acid salt”, the concentration for a half-maximal effect (EC50) lay in the range of 1 to 10 µM.
As to `CC[C@@H]1CN(Cc2cc(C(c3ccc4c(nnn4C)c3C)C(C)(C)C(=O)O)ccc2C)Cc2ccccc2O1` (stereo partly drawn) [Example 114, 3-(1,4-Dimethyl-1H-benzo[d][1,2,3]triazol-5-yl)-3-(3-(((R)-2-ethyl-2,3-dihydrobenzo[f][1,4]oxazepin-4(5H)-yl)methyl)-4-methylphenyl)-2,2-dimethylpropanoic Acid, Lithium Salt], the EC50 (Homo sapiens) is 0.1 to 1 µM.
Take `CCC1CN(Cc2cc(C(CC(=O)O)c3cc(OC)c4c(nnn4C)c3C)ccc2C)Cc2ccccc2O1` (stereo not shown) [Example 70, 3-(3-((2-Ethyl-2,3-dihydrobenzo[f][1,4]oxazepin-4(5H)-yl)methyl)-4-methylphenyl)-3-(7-methoxy-1,4-dimethyl-1H-benzo[d][1,2,3]triazol-5-yl)propanoic Acid, Formic Acid Salt]: the EC50 (Homo sapiens, BEAS-2B, 48 h) was 0.01 to 0.1 µM.
On the same count and under the same terms, under `CC[C@@H]1CN(Cc2cc(C(CCc3cn(CC)nn3)C(C)(C)C(=O)O)ccc2C)Cc2ncccc2O1` (stereo partly drawn) [Example 216, 5-(1-Ethyl-1H-1,2,3-triazol-4-yl)-3-(3-(((R)-2-ethyl-2,3-dihydropyrido[2,3-f][1,4]oxazepin-4(5H)-yl)methyl)-4-methylphenyl)-2,2-dimethylpentanoic Acid] stands 0.001 to 0.01 µM; under `CC[C@@H]1CN(Cc2cc(C(CCc3cn(CC)nn3)CC(=O)O)ccc2Cl)Cc2ncccc2O1` (stereo partly drawn) [Example 231, 3-(4-Chloro-3-(((R)-2-ethyl-2,3-dihydropyrido[2,3-f][1,4]oxazepin-4(5H)-yl)methyl)phenyl)-5-(1-ethyl-1H-1,2,3-triazol-4-yl)pentanoic Acid], 0.1 to 1 µM; under `CCn1nnc2c(Cl)c([C@@H](CC(=O)O)c3ccc(C)c(CN4Cc5ccccc5OC(C)(C)C4)c3)ccc21` [Example 54, (S)-3-(4-Chloro-1-ethyl-1H-benzo[d][1,2,3]triazol-5-yl)-3-(3-((2,2-dimethyl-2,3-dihydrobenzo[f][1,4]oxazepin-4(5H)-yl)methyl)-4-methylphenyl)propanoic acid, hydrochloride], 0.01 to 0.1 µM.
With `CCn1cc(CCC(c2ccc(C)c(CN3Cc4cnccc4OC(C)(C)C3)c2)C(C)C(=O)O)nn1` (single isomer, unassigned) [Example 227, 3-(3-((2,2-Dimethyl-2,3-dihydropyrido[3,4-f][1,4]oxazepin-4(5H)-yl)methyl)-4-methylphenyl)-5-(1-ethyl-1H-1,2,3-triazol-4-yl)-2-methylpentanoic acid, Trifluoroacetic acid salt], the EC50 (Homo sapiens, BEAS-2B, 48 h) was in the range of 0.1 to 1 µM.
Same read-out and setting: then `Cc1ccc(C(CC(=O)O)c2ccc3c(nnn3C)c2C)cc1CN1Cc2ccccc2OC2(CC2)C1` (stereo not shown) [Example 243, 3-(3-((3H-Spiro[benzo[f][1,4]oxazepine-2,1′-cyclopropan]-4(5H)-yl)methyl)-4-methylphenyl)-3-(1,4-dimethyl-1H-benzo[d][1,2,3]triazol-5-yl)propanoic Acid], with 0.1 to 1 µM.
Still for that read-out and setting: under `Cc1ccc(C(CC(=O)O)c2ccc3c(nnn3C)c2C)cc1CN1Cc2ccccc2CC(C)(C)C1` (stereo not shown) [Example 105, Ammonium 3-(1,4-dimethyl-1H-benzo[d][1,2,3]triazol-5-yl)-3-(3-((4,4-dimethyl-4,5-dihydro-1H-benzo[c]azepin-2(3H)-yl)methyl)-4-methylphenyl)propanoate] stands 0.01 to 0.1 µM.
Still for that read-out and setting: then `CCC1CN(Cc2cc([C@@H](c3ccc4c(nnn4C)c3C)C(C)C(=O)O)ccc2C)Cc2ccccc2O1` (stereo partly drawn) [Example 100, (3S)-3-(1,4-dimethyl-1H-benzo[d][1,2,3]triazol-5-yl)-3-(3-((2-ethyl-2,3-dihydrobenzo[f][1,4]oxazepin-4(5H)-yl)methyl)-4-methylphenyl)-2-methylpropanoic Acid], with 0.01 to 0.1 µM.
As to `CCCn1cc(CCC(c2ccc(C)c(Cn3ccnc3CN3CCC(CC)CC3)c2)C(C)(C)C(=O)O)nn1` (single isomer, unassigned) [Example 248, 3-(3-((2-((4-ethylpiperidin-1-yl)methyl)-1H-imidazol-1-yl)methyl)-4-methylphenyl)-2,2-dimethyl-5-(1-propyl-1H-1,2,3-triazol-4-yl)pentanoic Acid], the EC50 lay in the range of 0.01 to 0.1 µM.
As to `Cc1ccc(C(CC(=O)O)c2ccc3c(nnn3C)c2C)cc1CN1Cc2cccnc2OC(C)(C)C1` (stereo not shown) [Example 96, 3-(1,4-Dimethyl-1H-benzo[d][1,2,3]triazol-5-yl)-3-(3-((2,2-dimethyl-2,3-dihydropyrido[3,2-f][1,4]oxazepin-4(5H)-yl)methyl)-4-methylphenyl)propanoic Acid], for the setting “Homo sapiens, BEAS-2B, 48 h”, the EC50 was 0.1 to 1 µM.
Same read-out and setting: then `CC[C@@H]1CN(Cc2cc(C(CC(=O)O)c3ccc4c(nnn4C)c3C)ccc2C)Cc2cc(C)ccc2O1` (stereo partly drawn) [Example 81, Ammonium 3-(1,4-dimethyl-1H-benzo[d][1,2,3]triazol-5-yl)-3-(3-(((R)-2-ethyl-7-methyl-2,3-dihydrobenzo[f][1,4]oxazepin-4(5H)-yl)methyl)-4-methylphenyl)propanate], with 0.01 to 0.1 µM; and `CCC1CN(Cc2cc(C(CC(=O)O)c3cc(OC)c4c(c3)nnn4C)ccc2C)Cc2ccccc2O1` (stereo not shown) [compound 46], with 0.1 to 1 µM.

The term EC50 denotes the concentration that produces a half-maximal response.

For the origin of these results see patent US10604509B2, “Nrf2 regulators” (GlaxoSmithKline Intellectual Property Development Limited, priority 2015, dated 2020).
